Data reported in patent US20210171464A1 (OLON S.P.A., priority 2017, published 2021).

Experiments:
[1] = system: dopamine receptors; conditions: cited from earlier work
[2] = exposure to atmospheric humidity (stability, hygroscopicity); format: physicochemical

Molecule | affinity for dopamine receptors [1] | hygroscopicity [2] | stability when exposed to atmospheric humidity ([2]; exposed to atmospheric humidity)
N-(4-fluorobenzyl)-N-(1-methylpiperidin-4-yl)-N′ -(4-(2-methyl-propyloxy)phenylmethyl)carbamide hemitartrate [pimavanserin hemitartrate] | no affinity |  | 
CC(C)COc1ccc(CNC(=O)N(Cc2ccc(F)cc2)C2CCN(C)CC2)cc1.CC(C)COc1ccc(CNC(=O)N(Cc2ccc(F)cc2)C2CCN(C)CC2)cc1.O=C(O)C(O)C(O)C(=O)O [N-(4-fluorobenzyl)-N-(1-methylpiperidin-4-yl)-N′-(4-(2-methylpropyloxy)-phenylmethyl)carbamide hemitartrate] |  | not hygroscopic | stable
